Biological target: T1, ER (Homo sapiens, UniProt P03372)
T1 construct: host or cells: T47D and MCF7 human breast cancer cells
T1 sequence (P03372 1-595): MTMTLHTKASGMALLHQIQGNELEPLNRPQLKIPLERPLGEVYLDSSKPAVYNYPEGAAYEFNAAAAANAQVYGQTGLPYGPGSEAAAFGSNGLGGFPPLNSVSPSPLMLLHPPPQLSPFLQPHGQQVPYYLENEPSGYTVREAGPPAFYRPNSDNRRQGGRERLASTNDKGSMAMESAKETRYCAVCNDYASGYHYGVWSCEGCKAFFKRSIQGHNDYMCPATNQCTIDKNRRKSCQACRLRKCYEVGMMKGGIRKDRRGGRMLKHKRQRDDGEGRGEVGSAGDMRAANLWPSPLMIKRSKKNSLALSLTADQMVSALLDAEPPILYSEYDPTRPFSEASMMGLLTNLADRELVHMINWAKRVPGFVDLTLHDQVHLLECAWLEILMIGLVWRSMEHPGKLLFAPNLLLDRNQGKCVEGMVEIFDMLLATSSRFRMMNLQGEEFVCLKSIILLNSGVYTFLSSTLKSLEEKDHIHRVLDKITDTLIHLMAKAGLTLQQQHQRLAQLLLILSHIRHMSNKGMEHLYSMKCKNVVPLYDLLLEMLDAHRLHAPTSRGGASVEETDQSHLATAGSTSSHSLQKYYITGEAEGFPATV
Assay: ER degradation activity, in-cell western blot analysis in T47D cells
Format: cell-based
Conditions: 16 hours, Table A does not say which cell line (T47D or MCF7), read-out: Potency (DC50)
Procedure, shortened: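 In-cell western, T47D; compounds 16 h, 0.5% DMSO final; anti-rabbit-680/anti-mouse-800 secondaries, 1 h RT, dark; read on CLX imager. ER % vs untreated/DMSO wells (100%).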

DC50, 10 to 100 nM:
C[C@@H]1Cc2c([nH]c3ccccc23)[C@@H](c2ccc(N3CCC4(CCN(C(=O)CN5Cc6cc7c(cc6C5)C(=O)N(C5CCC(=O)NC5=O)C7=O)CC4)CC3)nc2)N1CC(F)F (stereo partly drawn) [E 281, 6-(2-(9-(5-((1R,3R)-2-(2,2-difluoroethyl)-3-methyl-2,3,4,9-tetrahydro-1H-pyrido[3,4-b]indol-1-yl)pyridin-2-yl)-3,9-diazaspiro[5.5]undecan-3-yl)-2-oxoethyl)-2-(2,6-dioxopiperidin-3-yl)-6,7-dihydropyrrolo[3,4-f]isoindole-1,3(2H,5H)-dione]
O=C1CCC(N2C(=O)c3cc4c(cc3C2=O)CN(CC(=O)N2CCC3(CC2)CCN(c2ccc([C@@H]5c6ccc(O)cc6CC[C@@H]5C5CCC(F)(F)CC5)cc2)CC3)C4)C(=O)N1 (mixture of isomers) [E 178, Rac-6-(2-(9-(4-((1R,2R)-2-(4,4-difluorocyclohexyl)-6-hydroxy-1,2,3,4-tetrahydronaphthalen-1-yl)phenyl)-3,9-diazaspiro[5.5]undecan-3-yl)-2-oxoethyl)-2-(2,6-dioxopiperidin-3-yl)-6,7-dihydropyrrolo[3,4-f]isoindole-1,3(2H,5H)-dione]
O=C1CCC(N2C(=O)c3cc4c(cc3C2=O)CN(CC(=O)N2CC3(CCN(c5ccc(C(=C(CCCl)c6ccccc6)c6ccc(O)cc6)cc5)CC3)C2)C4)C(=O)N1 (centres unmarked) [E 187, 6-(2-(7-(4-(4-chloro-1-(4-hydroxyphenyl)-2-phenylbut-1-en-1-yl)phenyl)-2,7-diazaspiro[3.5]nonan-2-yl)-2-oxoethyl)-2-(2,6-dioxopiperidin-3-yl)-6,7-dihydropyrrolo[3,4-f]isoindole-1,3(2H,5H)-dione]
C[C@@H]1Cc2c([nH]c3ccccc23)[C@@H](c2c(F)cc(N3CC4(CCCN(CC(=O)N5Cc6cc7c(cc6C5)C(=O)N(C5CCC(=O)NC5=O)C7)C4)C3)cc2F)N1CC(F)F (stereo partly drawn) [E 106, 3-(6-(2-(2-(4-((1R,3R)-2-(2,2-difluoroethyl)-3-methyl-2,3,4,9-tetrahydro-1H-pyrido[3,4-b]indol-1-yl)-3,5-difluorophenyl)-2,6-diazaspiro[3.5]nonan-6-yl)acetyl)-1-oxo-3,5,6,7-tetrahydropyrrolo[3,4-f]isoindol-2(1H)-yl)piperidine-2,6-dione]
CCC(=C(c1ccc(O)cc1)c1ccc(N2CCC3(CCN(CC(=O)N4Cc5cc6c(cc5C4)C(=O)N(C4CCC(=O)NC4=O)C6=O)CC3)C2)cc1)c1ccccc1 (centres unmarked) [E 192, 2-(2,6-dioxopiperidin-3-yl)-6-(2-(2-(4-(1-(4-hydroxyphenyl)-2-phenylbut-1-en-1-yl)phenyl)-2,8-diazaspiro[4.5]decan-8-yl)acetyl)-6,7-dihydropyrrolo[3,4-f]isoindole-1,3(2H,5H)-dione]

DC50, < 10 nM:
C[C@@H]1Cc2c([nH]c3ccccc23)[C@@H](c2c(F)cc(N3CCCC(CN4CCC(C(=O)N5Cc6cc7c(cc6C5)C(=O)N(C5CCC(=O)NC5=O)C7)CC4)C3)cc2F)N1CC(F)F (stereo partly drawn) [E 92, 3-(6-(1-((1-(4-((1R,3R)-2-(2,2-difluoroethyl)-3-methyl-2,3,4,9-tetrahydro-1H-pyrido[3,4-b]indol-1-yl)-3,5-difluorophenyl)piperidin-3-yl)methyl)piperidine-4-carbonyl)-1-oxo-3,5,6,7-tetrahydropyrrolo[3,4-f]isoindol-2(1H)-yl)piperidine-2,6-dione]

DC50, > 100 nM:
O=C1CCC(N2C(=O)c3cc4c(cc3C2=O)CN(CC(=O)N2CCC3(CC2)CCN(c2ccc([C@@H]5c6ccc(O)cc6CC[C@@H]5c5ccc(F)cc5)cn2)CC3)C4)C(=O)N1 (mixture of isomers) [E 185, Rac-2-(2,6-dioxopiperidin-3-yl)-6-(2-(9-(5-((1S,2S)-2-(4-fluorophenyl)-6-hydroxy-1,2,3,4-tetrahydronaphthalen-1-yl)pyridin-2-yl)-3,9-diazaspiro[5.5]undecan-3-yl)-2-oxoethyl)-6,7-dihydropyrrolo[3,4-f]isoindole-1,3(2H,5H)-dione]
CN(CC1CN(c2ccc([C@@H]3c4ccc(O)cc4CC[C@@H]3c3ccccc3)cc2)C1)C1CCC(N2Cc3cc4c(cc3C2)C(=O)N(C2CCC(=O)NC2=O)C4=O)CC1 (stereo partly drawn) [E333, 2-(2,6-dioxopiperidin-3-yl)-6-(4-(((1-(4-((1R,2S)-6-hydroxy-2-phenyl-1,2,3,4-tetrahydronaphthalen-1-yl)phenyl)azetidin-3-yl)methyl)(methyl)amino)cyclohexyl)-6,7-dihydropyrrolo[3,4-f]isoindole-1,3(2H,5H)-dione]
O=C1CCC(N2C(=O)c3cc4c(cc3C2=O)CN(C(=O)CN2CC3(CCN(c5ccc([C@@H]6c7ccc(O)cc7CC[C@@H]6c6ccccc6)cc5)CC3)C2)CCC4)C(=O)N1 (mixture of isomers) [E 168, rac-2-(2,6-dioxopiperidin-3-yl)-6-(2-(7-(4-((1R,2S)-6-hydroxy-2-phenyl-1,2,3,4-tetrahydronaphthalen-1-yl)phenyl)-2,7-diazaspiro[3.5]nonan-2-yl)acetyl)-6,7,8,9-tetrahydroazepino[3,4-f]isoindole-1,3(2H,5H)-dione]
O=C1CCC(N2C(=O)c3cc4c(cc3C2=O)CN(C2CCC3(CC2)CCN(c2ccc([C@@H]5c6ccc(O)cc6CC[C@@H]5c5ccccc5)cc2)CC3)C4)C(=O)N1 (stereo partly drawn) [E 160, 2-(2,6-dioxopiperidin-3-yl)-6-(3-(4-((1R,2S)-6-hydroxy-2-phenyl-1,2,3,4-tetrahydronaphthalen-1-yl)phenyl)-3-azaspiro[5.5]undecan-9-yl)-6,7-dihydropyrrolo[3,4-f]isoindole-1,3(2H,5H)-dione]
C[C@@H]1Cc2cc(O)ccc2[C@@H](c2c(F)cc(N3CC4(CCN(C(=O)CN5Cc6cc7c(cc6C5)C(=O)N(C5CCC(=O)NC5=O)C7)CC4)C3)cc2F)N1CC(C)(F)F (stereo partly drawn) [E 27, 3-(6-(2-(2-(4-((1S,3R)-2-(2,2-difluoropropyl)-6-hydroxy-3-methyl-1,2,3,4-tetrahydroisoquinolin-1-yl)-3,5-difluorophenyl)-2,7-diazaspiro[3.5]nonan-7-yl)-2-oxoethyl)-1-oxo-3,5,6,7-tetrahydropyrrolo[3,4-f]isoindol-2(1H)-yl)piperidine-2,6-dione]
CN(C1CN(c2ccc([C@@H]3c4ccc(O)cc4CC[C@@H]3c3ccccc3)cc2)C1)[C@H]1CC[C@H](C(=O)N2Cc3cc4c(cc3C2)C(=O)N(C2CCC(=O)NC2=O)C4)CC1 (single isomer, unassigned) [E 355]
O=C1CCC(N2C(=O)c3cc4c(cc3C2=O)CN(CC(=O)N2CCC3(CC2)CCN(c2cnc([C@@H]5c6ccc(O)cc6CC[C@@H]5c5ccccc5)cn2)CC3)C4)C(=O)N1 (mixture of isomers) [E 304, Rac-2-(2,6-dioxopiperidin-3-yl)-6-(2-(9-(5-((1S,2S)-6-hydroxy-2-phenyl-1,2,3,4-tetrahydronaphthalen-1-yl)pyrazin-2-yl)-3,9-diazaspiro[5.5]undecan-3-yl)-2-oxoethyl)-6,7-dihydropyrrolo[3,4-f]isoindole-1,3(2H,5H)-dione]
O=C1CCC(N2C(=O)c3cc4c(cc3C2=O)CN(CC2CN(C(=O)C3CN(c5ccc([C@@H]6c7ccc(O)cc7CC[C@@H]6c6ccccc6)cc5)C3)C2)C4)C(=O)N1 (mixture of isomers) [E 158, Rac-2-(2,6-dioxopiperidin-3-yl)-6-((1-(1-(4-((1R,2S)-6-hydroxy-2-phenyl-1,2,3,4-tetrahydronaphthalen-1-yl)phenyl)azetidine-3-carbonyl)azetidin-3-yl)methyl)-6,7-dihydropyrrolo[3,4-f]isoindole-1,3(2H,5H)-dione]
C[C@@H]1Cc2c([nH]c3ccccc23)[C@@H](c2c(F)cc(-c3cnc(C(=O)N4CCC(N5Cc6cc7c(cc6C5)C(=O)N(C5CCC(=O)NC5=O)C7=O)CC4)cn3)cc2F)N1CC(F)F (stereo partly drawn) [E 344, 6-(1-(5-(4-((1R,3R)-2-(2,2-difluoroethyl)-3-methyl-2,3,4,9-tetrahydro-1H-pyrido[3,4-b]indol-1-yl)-3,5-difluorophenyl)pyrazine-2-carbonyl)piperidin-4-yl)-2-(2,6-dioxopiperidin-3-yl)-6,7-dihydropyrrolo[3,4-f]isoindole-1,3(2H,5H)-dione]
C[C@@H]1Cc2c([nH]c3ccccc23)[C@@H](c2c(F)cc(N3CC4(CCCN(CC(=O)N5Cc6cc7c(cc6C5)C(=O)N(C5CCC(=O)NC5=O)C7=O)C4)C3)cc2F)N1CC(F)F (stereo partly drawn) [E 105, 6-(2-(2-(4-((1R,3R)-2-(2,2-difluoroethyl)-3-methyl-2,3,4,9-tetrahydro-1H-pyrido[3,4-b]indol-1-yl)-3,5-difluorophenyl)-2,6-diazaspiro[3.5]nonan-6-yl)acetyl)-2-(2,6-dioxopiperidin-3-yl)-6,7-dihydropyrrolo[3,4-f]isoindole-1,3(2H,5H)-dione]

Same assay, conditions: compounds 16 hours, Table A does not say whether T47D or MCF7, read-out: Potency (DC50)

DC50, 10 to 100 nM:
C[C@@H]1Cc2cc(O)ccc2[C@@H](c2c(F)cc(OC3CC4(CCN(C(=O)CN5Cc6cc7c(cc6C5)C(=O)N(C5CCC(=O)NC5=O)C7=O)CC4)C3)cc2F)N1CC(F)F (stereo partly drawn) [E 455, 6-(2-(2-(4-((1S,3R)-2-(2,2-difluoroethyl)-6-hydroxy-3-methyl-1,2,3,4-tetrahydroisoquinolin-1-yl)-3,5-difluorophenoxy)-7-azaspiro[3.5]nonan-7-yl)-2-oxoethyl)-2-(2,6-dioxopiperidin-3-yl)-6,7-dihydropyrrolo[3,4-f]isoindole-1,3(2H,5H)-dione]

Source: US20240190880A1 (THE REGENTS OF THE UNIVERSITY OF MICHIGAN, priority 2021, published 2024)
